{"source": "patent US20070128217A1", "about": "(priority 2003, published 2007)", "key": {"[1]": {"tested_on": "rabbit serum obtained by immunizing a rabbit with the SARS-CoV strain Frankfurt 1", "assay_type": "binding", "set-up": "Binding of a rabbit serum to linear peptides / Binding of a rabbit serum to looped peptides / Rabbit serum linear peptides / Rabbit serum looped peptides / Binding of a rabbit serum to linear peptides of protein N of SARS-CoV Urbani (Rabbit serum linear peptides) / Binding of a rabbit serum to looped/cyclic peptides of protein N of SARS-CoV Urbani (Rabbit serum looped peptides): unit not given here"}, "[2]": {"tested_on": "recombinant human anti-SARS-CoV antibody 03-018", "assay_type": "binding", "set-up": "Binding of antibody 03-018 to linear peptides of the N protein of SARS-CoV Urbani / Binding of antibody 03-018 to looped/cyclic peptides of the N protein of SARS-CoV Urbani: unit not given here"}, "[3]": {"tested_on": "antibodies in sera from SARS patients (sera 1a, 1b, 2, 6, 37, 62, London, SARS-yellow, SARS-green)", "assay_type": "binding, human", "set-up": "Binding of serum 6 to linear peptides of protein X1 of SARS-CoV Urbani / Binding of serum 37 to linear peptides of protein X1 of SARS-CoV Urbani / Binding of serum 6 to looped/cyclic peptide (PEPSCAN-ELISA) / Binding of serum 37 to looped/cyclic peptide (PEPSCAN-ELISA) / Binding of serum 37 to looped/cyclic peptides of protein X1 of SARS-CoV Urbani / Binding of serum 6 to linear peptides of protein X2 / Binding of serum 37 to linear peptides of protein X2 / Binding of serum 37 to looped/cyclic peptides of protein X2 of SARS-CoV Urbani / Binding of serum 6 to linear peptides of protein M of SARS-CoV Urbani / Binding of serum 37 to linear peptides of protein M of SARS-CoV Urbani / Binding of serum 6 to looped/cyclic peptides of protein M of SARS-CoV Urbani / Binding of serum 37 to looped/cyclic peptides of protein M of SARS-CoV Urbani / Binding of serum 6 to linear peptides of protein X3 of SARS-CoV Urbani / Binding of serum 37 to linear peptides of protein X3 of SARS-CoV Urbani / Binding of serum 37 to looped/cyclic peptides of protein X3 of SARS-CoV Urbani / Binding of serum 6 to linear peptides of protein X4 of SARS-CoV Urbani / Binding of serum 37 to linear peptides of protein X4 of SARS-CoV Urbani / Binding of serum 37 to looped/cyclic peptides of protein X4 of SARS-CoV Urbani / Binding of serum 6 to linear peptides of protein X5 of SARS-CoV Urbani / Binding of serum 37 to linear peptides of protein X5 of SARS-CoV Urbani / Binding of serum 37 to looped/cyclic peptides of protein X5 of SARS-CoV Urbani / Binding of serum 6 to linear peptides of protein N of SARS-CoV Urbani / Binding of serum 37 to linear peptides of protein N of SARS-CoV Urbani / Binding of serum 6 to linear peptide (PEPSCAN-ELISA) / Binding of serum 1a to looped/cyclic peptides of protein N of SARS-CoV Urbani / Binding of serum 1b to looped/cyclic peptides of protein N of SARS-CoV Urbani / Binding of serum 2 to looped/cyclic peptides of protein N of SARS-CoV Urbani / Binding of serum 6 to looped/cyclic peptides of protein N of SARS-CoV Urbani / Binding of serum 37 to looped/cyclic peptides of protein N of SARS-CoV Urbani / Binding of serum 62 to looped/cyclic peptides of protein N of SARS-CoV Urbani / Binding of serum London to looped/cyclic peptides of protein N of SARS-CoV Urbani / Binding of serum SARS-green to looped/cyclic peptides of protein N of SARS-CoV Urbani: unit not given here"}, "[4]": {"tested_on": "control sera (pooled serum of ten healthy LUMC hospital workers; commercial negative donor pooled serum from the Dutch bloodbank)", "assay_type": "binding, human", "set-up": "Binding of Control serum LUMC to linear peptides / Binding of Control serum Blood-bank to linear peptides / Binding of Control serum LUMC to looped peptides / Binding of Control Serum Blood-Bank to Looped peptides / Binding of Control serum LUMC to linear peptides of the protein M of SARS-CoV Urbani / Binding of Control serum Blood-bank to linear peptides of the protein M of SARS-CoV Urbani / Binding of Control serum LUMC to looped peptides of the protein M of SARS-CoV Urbani / Binding of Control Serum Blood-Bank to Looped peptides of the protein M of SARS-CoV Urbani: unit not given here"}}, "data": [{"sequence": "ATVLQLPQGTTLPKG", "values": [{"measurement": "Binding of a rabbit serum to linear peptides of protein N of SARS-CoV Urbani (Rabbit serum linear peptides)", "setting": "[1]", "result": 0.2}, {"measurement": "Binding of a rabbit serum to looped/cyclic peptides of protein N of SARS-CoV Urbani (Rabbit serum looped peptides)", "setting": "[1]", "result": 0.3}, {"measurement": "Binding of antibody 03-018 to linear peptides of the N protein of SARS-CoV Urbani", "setting": "[2]", "result": 0.1}, {"measurement": "Binding of antibody 03-018 to looped/cyclic peptides of the N protein of SARS-CoV Urbani", "setting": "[2]", "result": 0.2}]}, {"sequence": "DDKDPQFKDNVILLN", "values": [{"measurement": "Binding of a rabbit serum to linear peptides of protein N of SARS-CoV Urbani (Rabbit serum linear peptides)", "setting": "[1]", "result": 0.1}, {"measurement": "Binding of a rabbit serum to looped/cyclic peptides of protein N of SARS-CoV Urbani (Rabbit serum looped peptides)", "setting": "[1]", "result": 0.4}, {"measurement": "Binding of antibody 03-018 to linear peptides of the N protein of SARS-CoV Urbani", "setting": "[2]", "result": 0.1}, {"measurement": "Binding of antibody 03-018 to looped/cyclic peptides of the N protein of SARS-CoV Urbani", "setting": "[2]", "result": 0.3}]}, {"sequence": "YQLESTQITTDTGIE", "values": [{"measurement": "Binding of serum 1a to linear peptides of protein X1 of SARS-CoV Urbani", "setting": "[3]", "result": 0.6}, {"measurement": "Binding of serum 1a to looped/cyclic peptides of protein X1 of SARS-CoV Urbani", "setting": "[3]", "result": 0.4}, {"measurement": "Binding of serum 1b to linear peptides of protein X1 of SARS-CoV Urbani", "setting": "[3]", "result": 0.5}, {"measurement": "Binding of serum 1b to looped/cyclic peptides of protein X1 of SARS-CoV Urbani", "setting": "[3]", "result": 0.3}, {"measurement": "Binding of serum 2 to linear peptides of protein X1 of SARS-CoV Urbani", "setting": "[3]", "result": 0.4}, {"measurement": "Binding of serum 2 to looped/cyclic peptides of protein X1 of SARS-CoV Urbani", "setting": "[3]", "result": 0.1}, {"measurement": "Binding of serum 6 to linear peptides of protein X1 of SARS-CoV Urbani", "setting": "[3]", "result": 0.5}, {"measurement": "Binding of serum 6 to looped/cyclic peptides of protein X1 of SARS-CoV Urbani", "setting": "[3]", "result": 0.1}, {"measurement": "Binding of serum 37 to linear peptides of protein X1 of SARS-CoV Urbani", "setting": "[3]", "result": 0.6}, {"measurement": "Binding of serum 37 to looped/cyclic peptides of protein X1 of SARS-CoV Urbani", "setting": "[3]", "result": 0.3}, {"measurement": "Binding of serum 62 to linear peptides of protein X1 of SARS-CoV Urbani", "setting": "[3]", "result": 0.5}, {"measurement": "Binding of serum 62 to looped/cyclic peptides of protein X1 of SARS-CoV Urbani", "setting": "[3]", "result": 0.3}, {"measurement": "Binding of serum London to linear peptides of protein X1 of SARS-CoV Urbani", "setting": "[3]", "result": 0.2}, {"measurement": "Binding of serum London to looped/cyclic peptides of protein X1 of SARS-CoV Urbani", "setting": "[3]", "result": 0.1}, {"measurement": "Binding of serum SARS-green to linear peptides of protein X1 of SARS-CoV Urbani", "setting": "[3]", "result": 0.4}, {"measurement": "Binding of serum SARS-green to looped/cyclic peptides of protein X1 of SARS-CoV Urbani", "setting": "[3]", "result": 0.2}, {"measurement": "Binding of serum SARS-yellow to linear peptides of protein X1 of SARS-CoV Urbani", "setting": "[3]", "result": 0.5}, {"measurement": "Binding of serum SARS-yellow to looped/cyclic peptides of protein X1 of SARS-CoV Urbani", "setting": "[3]", "result": 0.2}, {"measurement": "Binding of Control Serum Blood-Bank to Looped peptides", "setting": "[4]", "result": 0.3}, {"measurement": "Binding of Control serum Blood-bank to linear peptides", "setting": "[4]", "result": 0.4}, {"measurement": "Binding of Control serum LUMC to linear peptides", "setting": "[4]", "result": 0.4}, {"measurement": "Binding of Control serum LUMC to looped peptides", "setting": "[4]", "result": 0.4}, {"measurement": "Binding of a rabbit serum to linear peptides", "setting": "[1]", "result": 0.1}, {"measurement": "Binding of a rabbit serum to looped peptides", "setting": "[1]", "result": 0.4}]}]}
